Read-outs that look alike come from different tables or passages of the source.
Columns and labels:
Assay in all cases: Kinase panel profiling at 1 µmol/L (MSA or IMAP), percentage inhibition
Assay type in all cases: biochemical
[1] = target: panel of 255 wild-type kinases (Homo sapiens, UniProt Q15208); settings: read-out: %-inhibition, NDR1
[2] = target: T1, panel of 255 wild-type kinases (Homo sapiens, UniProt Q9BZL6); settings: read-out: %-inhibition at 1 µmol/L, PKD2
T1 sequence (Q9BZL6 1-878): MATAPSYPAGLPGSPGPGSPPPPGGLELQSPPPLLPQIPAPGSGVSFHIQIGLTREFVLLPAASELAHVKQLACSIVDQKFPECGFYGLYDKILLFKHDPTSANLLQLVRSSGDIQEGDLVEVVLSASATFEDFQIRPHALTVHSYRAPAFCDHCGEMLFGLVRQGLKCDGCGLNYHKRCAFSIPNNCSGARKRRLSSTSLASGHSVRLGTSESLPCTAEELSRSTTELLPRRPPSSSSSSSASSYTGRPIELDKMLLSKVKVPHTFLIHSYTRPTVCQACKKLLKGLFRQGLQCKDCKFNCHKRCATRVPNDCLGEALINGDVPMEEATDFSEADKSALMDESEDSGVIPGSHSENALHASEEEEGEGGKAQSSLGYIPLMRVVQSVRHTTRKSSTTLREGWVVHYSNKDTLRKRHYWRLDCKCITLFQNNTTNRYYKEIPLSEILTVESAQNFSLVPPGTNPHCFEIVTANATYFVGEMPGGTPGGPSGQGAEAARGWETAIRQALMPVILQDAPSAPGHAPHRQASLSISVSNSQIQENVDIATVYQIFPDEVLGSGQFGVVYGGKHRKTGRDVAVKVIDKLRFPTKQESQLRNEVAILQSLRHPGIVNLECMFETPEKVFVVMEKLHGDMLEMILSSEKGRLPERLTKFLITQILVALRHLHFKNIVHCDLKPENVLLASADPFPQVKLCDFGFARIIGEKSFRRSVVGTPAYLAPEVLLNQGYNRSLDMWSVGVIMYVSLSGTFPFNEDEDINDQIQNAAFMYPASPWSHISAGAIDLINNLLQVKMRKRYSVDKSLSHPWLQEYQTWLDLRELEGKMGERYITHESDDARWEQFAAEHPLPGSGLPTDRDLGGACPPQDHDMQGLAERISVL

[3] = target: panel of 255 wild-type kinases (Homo sapiens, UniProt Q13555); settings: read-out: %-inhibition CaMK2γ
[4] = target: T2, panel of 255 wild-type kinases (Homo sapiens, UniProt Q8IWQ3); settings: read-out: %-inhibition BRSK2
T2 sequence (Q8IWQ3 1-736): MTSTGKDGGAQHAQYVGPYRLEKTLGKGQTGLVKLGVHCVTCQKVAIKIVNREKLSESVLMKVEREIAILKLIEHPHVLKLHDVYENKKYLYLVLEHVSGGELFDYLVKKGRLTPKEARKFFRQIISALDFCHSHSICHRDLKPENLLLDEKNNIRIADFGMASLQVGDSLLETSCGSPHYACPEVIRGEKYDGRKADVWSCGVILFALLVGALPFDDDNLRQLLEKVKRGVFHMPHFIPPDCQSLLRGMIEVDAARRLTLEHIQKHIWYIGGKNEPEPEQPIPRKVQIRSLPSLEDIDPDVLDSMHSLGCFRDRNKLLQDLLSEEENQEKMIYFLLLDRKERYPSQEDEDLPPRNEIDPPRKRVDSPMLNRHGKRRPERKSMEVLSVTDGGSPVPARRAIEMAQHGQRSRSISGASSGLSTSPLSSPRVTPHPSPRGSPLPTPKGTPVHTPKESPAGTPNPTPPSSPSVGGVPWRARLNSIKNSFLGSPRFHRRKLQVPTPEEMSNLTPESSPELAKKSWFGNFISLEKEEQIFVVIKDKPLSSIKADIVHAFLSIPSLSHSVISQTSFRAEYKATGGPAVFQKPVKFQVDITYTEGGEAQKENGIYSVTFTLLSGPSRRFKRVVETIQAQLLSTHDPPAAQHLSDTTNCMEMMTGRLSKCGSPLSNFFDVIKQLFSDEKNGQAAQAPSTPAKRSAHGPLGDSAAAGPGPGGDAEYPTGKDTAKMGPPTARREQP

[5] = target: T3, panel of 255 wild-type kinases (Homo sapiens, UniProt Q15139); settings: read-out: %-inhibition at 1 µmol/L, PKD1
T3 sequence (Q15139 1-912): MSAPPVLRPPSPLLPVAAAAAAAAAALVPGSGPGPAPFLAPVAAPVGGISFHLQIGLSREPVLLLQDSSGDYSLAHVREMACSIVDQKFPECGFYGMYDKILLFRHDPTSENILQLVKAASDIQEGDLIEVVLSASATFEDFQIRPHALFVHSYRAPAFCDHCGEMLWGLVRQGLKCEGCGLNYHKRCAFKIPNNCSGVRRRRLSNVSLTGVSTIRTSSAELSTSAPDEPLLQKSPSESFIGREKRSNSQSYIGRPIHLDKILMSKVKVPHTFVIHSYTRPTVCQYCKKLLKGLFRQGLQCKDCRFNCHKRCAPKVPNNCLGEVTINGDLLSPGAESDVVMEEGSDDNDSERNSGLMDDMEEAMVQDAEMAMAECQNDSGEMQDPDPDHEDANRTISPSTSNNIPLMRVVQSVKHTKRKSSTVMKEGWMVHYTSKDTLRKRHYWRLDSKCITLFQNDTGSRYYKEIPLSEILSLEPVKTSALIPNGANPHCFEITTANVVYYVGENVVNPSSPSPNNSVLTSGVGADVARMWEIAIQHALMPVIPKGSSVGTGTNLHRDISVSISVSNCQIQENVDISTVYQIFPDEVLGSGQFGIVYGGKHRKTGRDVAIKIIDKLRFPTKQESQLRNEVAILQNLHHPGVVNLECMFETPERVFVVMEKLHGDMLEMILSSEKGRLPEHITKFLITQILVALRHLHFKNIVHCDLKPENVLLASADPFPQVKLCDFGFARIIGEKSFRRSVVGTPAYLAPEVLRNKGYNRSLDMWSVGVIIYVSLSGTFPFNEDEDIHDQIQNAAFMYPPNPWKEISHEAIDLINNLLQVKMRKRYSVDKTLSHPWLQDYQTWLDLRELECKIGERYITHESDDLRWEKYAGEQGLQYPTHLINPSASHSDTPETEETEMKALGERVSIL

[6] = NDR1, 1 µmol/L single concentration
[7] = kinase PKD2, 1 µmol/L single concentration
[8] = CaMK2γ kinase assay, 1 µmol/L single concentration
[9] = BRSK2 kinase assay, 1 µmol/L single concentration
[10] = kinase PKD1, 1 µmol/L single concentration

Structure (SMILES)	inhibition at 1 µM [1, 6]	inhibition at 1 µM [2, 7]	inhibition at 1 µM [3, 8]	inhibition at 1 µM [4, 9]	inhibition at 1 µM [5, 10]	inhibition at 1 µM [1]	inhibition at 1 µM [2]	inhibition at 1 µM [3]	inhibition at 1 µM [4]	inhibition at 1 µM [5]
COC(=O)N[C@@H](C)CNc1nccc(-c2cn(C(C)C)nc2-c2cc(Cl)cc(NS(C)(=O)=O)c2F)n1 [encorafenib]	1.12%	2.49%	-3.25%	-8%	0.18%	–	–	–	–	–
C[C@H](Nc1ncnc2nc[nH]c12)c1cc2cccc(Cl)c2c(=O)n1-c1ccccc1 [duvelisib]	0.434%	-12%	0.463%	11%	-3.47%	–	–	–	–	–
CCN1CCN(c2ccc(Nc3cc(N(C)C(=O)Nc4c(Cl)c(OC)cc(OC)c4Cl)ncn3)cc2)CC1 [infigratinib]	1.4%	-4.21%	-3.37%	2.65%	11%	–	–	–	–	–
CNC(=O)c1ccc(-c2cnc3ncc(Cc4ccc5ncccc5c4)n3n2)cc1F [capmatinib]	–	–	–	–	–	-0.897%	-7.47%	-1.68%	1%	-5%
FC(F)(F)c1ccc(CNc2ccc(Cc3c[nH]c4ncc(Cl)cc34)cn2)cn1 [pexidartinib]	13%	-5%	0.769%	5.28%	-2.56%	–	–	–	–	–
O=C(Nc1cnn2ccc(N3CCC[C@@H]3c3cc(F)ccc3F)nc12)N1CC[C@H](O)C1 [larotrectinib]	-2.75%	-6%	-0.126%	0.485%	0.148%	–	–	–	–	–
CCc1nc(C(N)=O)c(Nc2ccc(N3CCC(N4CCN(C)CC4)CC3)c(OC)c2)nc1NC1CCOCC1 [gilteritinib]	68%	56%	62%	23%	52%	–	–	–	–	–
CCn1c(=O)c(-c2cc(NC(=O)Nc3ccccc3)c(F)cc2Br)cc2cnc(NC)cc21 [ripretinib]	0.881%	13%	0.397%	8%	15%	–	–	–	–	–
CN1CCN(c2ccc(C(=O)Nc3n[nH]c4ccc(Cc5cc(F)cc(F)c5)cc34)c(NC3CCOCC3)c2)CC1 [entrectinib]	49%	-24%	17%	18%	1.46%	–	–	–	–	–
Cn1cnc2c(F)c(Nc3ccc(Br)cc3F)c(C(=O)NOCCO)cc21 [binimetinib]	-1.86%	-7%	-3.65%	-13%	-1.69%	–	–	–	–	–
COc1ccc(CN2C3CC2CN(c2ccc(-c4cc(OCC(C)(C)O)cn5ncc(C#N)c45)cn2)C3)cn1 [selpercatinib]	-1.18%	1.11%	0.226%	35%	3.64%	–	–	–	–	–
Cc1nc(NC(=O)N2CCC[C@H]2C(N)=O)sc1-c1ccnc(C(C)(C)C(F)(F)F)c1 [alpelisib]	0.245%	-20%	0.455%	14%	-2%	–	–	–	–	–
Cc1cc(Nc2ncnc3ccc(NC4=NC(C)(C)CO4)cc23)ccc1Oc1ccn2ncnc2c1 [tucatinib]	-0.331%	44%	-5%	7%	28%	–	–	–	–	–
Cn1cnc2c(F)c(Nc3ccc(Br)cc3Cl)c(C(=O)NOCCO)cc21 [selumetinib]	0.227%	-15%	-3%	4%	-0.6%	–	–	–	–	–
COc1cc2ncnc(Nc3ccc(F)c(Cl)c3)c2cc1NC(=O)/C=C/CN1CCCCC1 [dacomitinib]	-0.0726%	10%	2.37%	6.47%	9.49%	–	–	–	–	–
C[C@H]1Oc2cc(cnc2N)-c2c(nn(C)c2C#N)CN(C)C(=O)c2ccc(F)cc21 [lorlatinib]	3.5%	-11%	10%	36%	-0.468%	–	–	–	–	–
CCN1C(=O)N(c2c(F)c(OC)cc(OC)c2F)Cc2cnc3[nH]c(CN4CCOCC4)cc3c21 [pemigatinib]	-4.31%	4.44%	5%	3.17%	10%	–	–	–	–	–
CO[C@]1(C(=O)N[C@@H](C)c2ccc(-n3cc(F)cn3)nc2)CC[C@H](c2nc(C)cc(Nc3cc(C)[nH]n3)n2)CC1 [pralsetinib]	7.54%	-9%	-3%	14%	0.3%	–	–	–	–	–
C=CC(=O)N1CCC([C@@H]2CCNc3c(C(N)=O)c(-c4ccc(Oc5ccccc5)cc4)nn32)CC1 [zanubrutinib]	-1.86%	2.31%	1.6%	0.0746%	5%	–	–	–	–	–
Cn1cc(-c2cc3c(N4CCN(c5ncc([C@@](C)(N)c6ccc(F)cc6)cn5)CC4)ncnn3c2)cn1 [avapritinib]	-1.28%	-0.865%	-4%	11%	6.4%	–	–	–	–	–

From paper PMC9516332 (Frontiers in Oncology, 2022)
